Reference: US20010031275A1, “Sesamol inhibitor of delta-5-desaturase activity and uses therefor” (priority 1998, published 2001)
Several values for one entry are separate records, joined by “and”; a condition that tells them apart may be missing. Equal values may be shown once. Entries after “also recorded” stand apart in the source; their conditions may differ. Marks after values point to notes of the source that are not given here.

Columns and labels:
[1] = system: Δ-5 desaturase enzyme; settings: Shimizu et al., Lipids 26:512-516 (1991); cited from earlier work
[2] = system: PGE2, IL-10, IL-6 and TNF-α; settings: fed mice, cited from earlier work
[3] = system: Δ-5 desaturation of ω6 fatty acids; assay: Fatty acid composition of liver membrane phospholipids from mice fed sesamol-supplemented safflower oil diet; assay type: in vivo, Balb/c mice; settings: 2 weeks; for DGLA (20:3ω6): control 1.4 ± 0.1; for Docosapentaenoic acid (22:5ω6): control 2.5 ± 0.4; for Δ-5 desaturation (20:4ω6/20:3): ratio Arachidonic acid/Dihomo-γ-linolenic acid, liver phospholipids, SO + 1% sesamol diet, control 18.0 ± 1.7
Method: The phospholipid fatty acid composition of the livers were determined, and the data represent mean mole percents of the total fatty acids (±s.d.). The levels of significance between the groups were determined using an unpaired student's t-test (p,0.05).
[…] They were allowed free access to drinking water and the experimental diets were fed at dusk, daily, between 4-5 PM. The weights of the body, and of the liver and spleen were determined on days 4, 7 and 14.
(§1) Diets: The AIN-76A fat-free powder along with 0.05% t-butyl hydroxy toluene, an antioxidant, was mixed with 5 wt % (10% Kcal) of safflower oil (Oilseeds International Ltd., Fresno, Calif.), partitioned into daily rations packaged in separate whirl-pack bags, flushed with N2, and stored at 4° C. Where indicated, these diets were supplemented with 1 wt % sesamol (Aldrich Chemical Company Inc. Milwaukee, Wis.).
Fatty acid analysis: Liver tissues were homogenized and extracted with a mixture of chloroform:methanol(2:1 v/v) containing 0.01% t-butylated hydroxytoluene as an antioxidant. The solvent fraction was isolated and evaporated to dryness under N2 and reconstituted in chloroform. The total phospholipids were separated by thin-layer chromatography on silica gel-H plates (Analtech Inc., Newark, Del.), and the fatty acid methyl esters were derived (Palombo et al., Lipids 29: 643-649 (1994)) and analyzed on a fused silica capillary column (100 m, 0.25 mm ID, 0.20 μm thickness; SP™-2560, Supelco Inc., Bellefonte, Pa.) using a gas chromatograph (5890 Series II) equipped with a mass selective detector (5971, Hewlett-Packard). The results were expressed as relative percent of identified fatty acids on a molar basis, using heptadecaenoic acid (17:0) as an internal standard.
The changes in the fatty acid composition (mean±s.d; mol. %) were determined in the liver membrane phospholipids from mice fed both the SO diets for 2 weeks (Table 1). […] Similar data were obtained in mice fed for as short as 4 days (data not shown).

[4] = system: TNF-α, IL-6, IL-10 and IL-12; assay: Endotoxin-induced in vivo production of cytokines (plasma ELISA) in mice fed sesamol-supplemented SO diet; design: species or system Balb/c mice; settings: SO + 1% sesamol diet, mean ± s.e.; for Tumor Necrosis Factor (TNF)-α: plasma at 1 hour following LPS, SO alone 3,042 ± 428; for Interleukin (IL)-6 / IL-10 / IL-12: plasma at 3 hours following LPS; for Interleukin (IL)-6: SO alone 143 ± 22; for IL-10: SO alone 262 ± 15; for IL-12: SO alone 6,355 ± 482
Method: Data represent the levels of […] (means±s.e.) in plasma samples obtained at 1 hour for TNF-α, and at 3 hours for IL-6, IL-10, and IL-12 following LPS exposure. The levels of significance in the differences between the two groups were determined using Dunnett Multiple Comparison test.
as §1
The plasma levels of TNF-α, IL-6, IL-10 and IL-12 were determined according to the manufacturer's instructions using enzyme-linked immunosorbent assay kits (Biosource International, Camarrilo, Calif.).

[5] = system: IL-6, IL-10, IL-12, TNF-α and PGE2; assay: Synthetic sesamol diet in endotoxic mice: plasma cytokines and PGE2 after LPS challenge; assay type: in vivo, Balb/c mice; settings: 5% SO + 0.25% synthetic sesamol diet, three weeks, 50 μg/mouse LPS for 90 minutes or three hours
Excerpt: Proinflammatory mediators play an important role during endotoxic shock. As described herein, naturally occurring sesamol inhibits Δ-5 desaturase activity, and also decreases the production of prostaglandin (PG)E2. No such scientific data are available for the synthetic, pure form of sesamol. Therefore, the effects of consuming synthetic sesamol on proinflammatory immune responses during septic shock were studied. Female Balb/c mice were fed diets supplemented with 5% safflower oil (SO) in the absence or presence of 0.25% synthetic sesamol for three weeks. After a challenge with 50 μg/mouse LPS for 90 minutes or three hours, the plasma levels (pg/ml) of interleukin (IL)-6, IL-10, IL-12, tumor necrosis factor (TNF)-α and PGE2 were determined.

[6] = Weights of body, liver and spleen of mice fed sesamol-supplemented diets; assay type: in vivo, Balb/c mice
Method: Animals: Six 8-week old, inbred, female Balb/c mice (Taconic Farms) were housed in our animal facility with a 12 hour day and 12 hour night cycle. They were allowed free access to drinking water and the experimental diets were fed at dusk, daily, between 4-5 PM. The weights of the body, and of the liver and spleen were determined on days 4, 7 and 14.

[7] = liver membrane phospholipids, 5 wt % SO + 1% sesamol diet, mean ± s.d., n=8
[8] = liver membrane phospholipids, 5 wt % SO + 1% sesamol diet, mean ± s.d., n=8, listed as SO + SESAMOL
[9] = mice fed sesamol-supplemented diets vs SO diets

## c1cc2c(cc1[C@H]1OC[C@H]3[C@@H]1CO[C@@H]3c1ccc3c(c1)OCO3)OCO2 [sesamin]
[1]
  inhibition of the activity of Δ-5 desaturase enzyme in vitro: inhibit
[2]; Chavali et al. 1997
  LPS-induced production of IL-6: lower
  LPS-induced production of IL-10: lower
  LPS-induced production of PGE2: lower
[2]; Chavali et al.
  LPS-induced production of TNF-α: elevated; also recorded: higher

## Oc1cc2c(cc1[C@H]1OC[C@H]3[C@@H]1CO[C@@H]3c1ccc3c(c1)OCO3)OCO2 [sesaminol]
[1]
  inhibition of the activity of Δ-5 desaturase enzyme in vitro: inhibit

## Oc1ccc2c(c1)OCO2 [sesamol, 3,4-methylenedioxyphenol]
[3]; [7]
  Arachidonic acid (20:4ω6): unchanged
  Docosahexaenoic acid (22:6ω3): 9.5 ± 0.4 mole percents
  Oleic acid (18:1ω9): 8.2 ± 1.1 mole percents
  Palmitic acid (16:0): 19.5 ± 1.4 mole percents
  Stearic acid (18:0): 19.2 ± 1.7 mole percents
  Vaccenic acid (18:1ω7): 2.6 ± 0.4 mole percents
  DGLA (20:3ω6): 1.6±0.1 mole percents and 1.6±1 mole percents
  Docosapentaenoic acid (22:5ω6): 1.4±0.1 mole percents
[3]; [8]
  DGLA (20:3ω6): 1.6 ± 0.1^a mole percents
  Docosapentaenoic acid (22:5ω6): 1.4 ± 0.1^a mole percents
  Arachidonic acid (20:4ω6): 24.9 ± 0.9 mole percents
[3]
  Δ-5 desaturation (20:4ω6/20:3): 15.6±1.5
[3]; listed as SO + SESAMOL
  Δ-5 desaturation (20:4ω6/20:3): 15.6 ± 1.5^a
[4]
  Tumor Necrosis Factor (TNF)-α: not elevated; also recorded: unaffected; also recorded: did not differ markedly; also recorded: did not differ significantly
  Interleukin (IL)-6: 63 ± 11 ng/mL
  IL-10: unaffected; also recorded: did not differ markedly; also recorded: did not differ significantly
  IL-12: did not differ markedly
[4]; listed as SO + SESAMOL
  Tumor Necrosis Factor (TNF)-α: 2,931 ± 461 pg/ml
  Interleukin (IL)-6: 63 ± 11 ng/mL
  IL-10: 236 ± 20 pg/mL
  IL-12: 6,620 ± 646 pg/ml
[5]; SO alone 314 ± 37
  IL-10: significantly higher
[5]; SO alone 314 ± 37, listed as SO + Sesamol
  IL-10: 490 ± 35 pg/mL
[5]; SO alone 418 ± 51
  IL-6: did not differ
[5]; SO alone 418 ± 51, listed as SO + Sesamol
  IL-6: 360 ± 32 pg/mL
[5]; SO alone 595 ± 68
  PGE2: markedly lower
[5]; SO alone 595 ± 68, listed as SO + Sesamol
  PGE2: 265 ± 39 pg/mL
[5]; SO alone 9,497 ± 1425
  TFN-α: markedly lower
[5]; SO alone 9,497 ± 1425, listed as SO + Sesamol
  TFN-α: 4,503 pg/ml
[5]; SO alone 11,165 ± 549
  IL-12: markedly lower
[5]; SO alone 11,165 ± 549, listed as SO + Sesamol
  IL-12: 8,969 pg/ml
[6]; [9]
  weights of body: not significantly different
  weights of livers: unaffected; also recorded: not significantly different
  weights of the spleen: not significantly different
[6]; sesamol-supplemented vs SO diet group
  percent gain in body weights: almost identical
[1]
  inhibition of the activity of Δ-5 desaturase enzyme in vitro: does not inhibit

## c1cc2c(cc1O[C@H]1OC[C@H]3[C@@H]1CO[C@@H]3c1ccc3c(c1)OCO3)OCO2 [sesamolin]
[1]
  inhibition of the activity of Δ-5 desaturase enzyme in vitro: inhibit
